One test concerns EGFP-HP1β. Kind of test: FRAP dynamics of EGFP-HP1β in living cells. Type of test: cell-based, mouse. To be noted: preexposure to 75 μM TBB (FIG. 20). The procedure: MEFs were seeded in 2-well Lab-Tek chambers (Nunc) after transfection with the EGFP-HP1β construct. Before imaging, growth medium was replaced with phenol-red free L15 imaging medium. Live cell imaging and photobleaching experiments were performed using a 40× 1.2 NA water immersion lens on a Zeiss LSM 510 Meta confocal microscope (using a heating chamber to maintain the cells at […]) with the 488 nm line of an Argon laser operating at 6.1 A.
FRAP analysis was performed by a method previously established in our lab 27. For low-bleach FRAP (see FIG. S1), selected regions of HC and EC were simultaneously bleached in a diffraction-limited spot with a pulse of 2 iterations at 100% of the […] Ar laser. Post-bleach images were acquired at a lower frequency of an image every 400 msec. Image bleach was corrected separately for EC and HC regions using a nearby unbleached cell. For high-bleach FRAP experiments, photobleaching was with 35 iterations at the same laser output, and images were collected every 290 msec. The normalized curves were plotted in GraphPad Prism, and recovery curves were fitted to a single order exponential equation Y=Ymax*(1−exp(−K*X)) to yield a recovery constant K; shown to be different among groups by the sum of squares f-test at p<0.05.

A further test has as its system γH2AX. Kind of test: γH2AX foci formation / staining in MEFs after IR. Type of test: cell-based, mouse. The procedure:
Cell staining and immunofluorescence analyses were carried out as described previously^2. Briefly, transfected and untransfected cells were grown on coverslips and subjected to different treatments as indicated in the text prior to fixation. Cells were fixed using 4% formaldehyde for 10-15 min, followed by solubilisation and blocking with 3% BSA in 1×PBS, 0.05% Tween-20, 0.05% Triton. Imaging was performed on a Zeiss LSM510 Meta confocal microscope, using a 40× objective with fixed optical slice, laser power and detector/amplifier settings for all samples across each individual experiment to allow comparison. Quantitative analysis for HP1βT51P and γH2AX staining was performed using mean per-nucleus intensity to avoid any discrepancy in the definition or counting of foci. This was performed on identically stained and imaged samples by estimation of raw pixel intensity values for a defined number of cells, specified for each experiment, through the Zeiss LSM software, and comparison of the different groups by one-way ANOVA and Dunnet's post test. […] The plates were imaged and analyzed using a Cellomics high content screening microscope, using a 40× non-immersion objective. […] 500 cells were analysed per well, and standard errors calculated from an average of the means of 8 wells.

For another test, the system named is HP1βT51P levels. Kind of test: anti-HP1βT51P detection in cell extracts. The format is cell-based.

With `Brc1c(Br)c(Br)c2[nH]cnc2c1Br` [TBB, 4,5,6,7-tetrabromo-benzimidazole], the “changes in FRAP dynamics of EGFP-HP1β triggered by DNA damage” value with EGFP-HP1β was “suppresses in living cells the changes in FRAP dynamics”. Further, in the test with γH2AX (MEFs pre-exposed to 75 μM TBB, 5 min after 3 Gy IR), the γH2AX foci formation result was “suppresses γH2AX foci formation”. In addition, the “pixel intensity of γH2AX staining after damage” value in the test with γH2AX (TBB preexposure, n=20 per sample, p<0.01) is listed as “reduced in a dose-dependent manner”. The “HP1βT51P levels detected by anti-HP1βT51P in cell extracts” value with HP1βT51P levels (TBB at 75 μM for 6 hrs, with and without etoposide) is “diminishes both the background detection and etoposide-induced enhancement of HP1βT51P levels”.
Turning to `COc1cc([C@@H]2c3cc4c(cc3[C@@H](O[C@@H]3O[C@@H]5CO[C@@H](C)O[C@H]5[C@H](O)[C@H]3O)[C@H]3COC(=O)[C@H]23)OCO4)cc(OC)c1O` [etoposide], the “HP1βT51P species detected by anti-HP1βT51P in cell extracts” value in the test on HP1βT51P levels (etoposide treatment) is on record as “enhanced in a dose-dependent manner”.

The record behind these values is patent US8021851B2, “Thr51 phosphorylated HP 1β protein for the assessment of DNA damage” (Cambridge Enterprise Limited, priority 2009, dated 2011).
